Biological target: Beta-lactamase (Escherichia coli K-12, UniProt P00811)
Test: Binding affinity towards AmpC beta-lactamase binding site from Escherichia coli

Beta-lactamase, sequence (P00811 whole entry): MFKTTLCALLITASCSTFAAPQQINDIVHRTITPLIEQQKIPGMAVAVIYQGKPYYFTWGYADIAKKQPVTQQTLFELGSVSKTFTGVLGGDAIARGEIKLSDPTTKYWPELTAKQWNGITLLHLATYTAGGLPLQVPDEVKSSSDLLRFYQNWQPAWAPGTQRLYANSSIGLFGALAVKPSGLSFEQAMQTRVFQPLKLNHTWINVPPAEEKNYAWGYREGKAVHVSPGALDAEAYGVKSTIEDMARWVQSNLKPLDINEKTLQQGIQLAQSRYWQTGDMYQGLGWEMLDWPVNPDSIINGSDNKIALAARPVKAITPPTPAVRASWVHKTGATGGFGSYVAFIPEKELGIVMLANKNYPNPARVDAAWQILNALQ

Ki: 0.02 µM
Structure (SMILES): CC(C)(O/N=C(/C(=O)NCB(O)O)c1csc(N)n1)C(=O)O

Source: ChEMBL document CHEMBL1135514, “Structure-based approach for binding site identification on AmpC beta-lactamase” (J Med Chem, 2002)
